Results as given in PMC12005472 (Chemmedchem, 2025).
Read-outs that look alike come from different tables or passages of the source.

Tests used:
Asp25 = Asp25 (UniProt position 93, KEALLDTGADD); conditions: cited from earlier work
[1] = system: HIV-1 protease (HIV-1 PR); parameters: method as in PMID 1883831; conditions: experiment; cited from earlier work
Endothiapepsin (EP) [2] = system: Endothiapepsin (EP)
From the text: The total proton exchange ( ΔnH^+ ) in a binding event can be determined by ITC measurements in different buffers with distinct heats of ionization ( ΔHionization ), according to the Eq. 1: (1) ΔHobserved=ΔHcorrected+ΔnH^+(ΔHionization)
Integrating the raw thermograms yields the experimentally observed enthalpies ( ΔHobserved ), which can be used for a linear regression with the slope corresponding to ΔnH^+ and the y‐axis intercept corresponding to the buffer‐corrected enthalpy of the binding reaction ( ΔHcorrected ).
Figure 3 Left: Calculation of the heat of ionization. The experimentally observed enthalpies ΔHobs are plotted against the heat of ionization ΔHion of the respective buffers (phosphate: 3.60 kJ mol^−1 ADA: 12.23 kJ mol^−1, HEPES: 20.04 kJ mol^−1, TRIS: 47.45 kJ mol^−1).[14] […] Right: Thermodynamic profiles of complex formation in phosphate, ADA, HEPES and TRIS buffers and the buffer‐corrected thermodynamic profile. For the buffer‐corrected profile, the change in Gibbs free energy ΔG is calculated as the average of ΔG observed in the four buffers, ΔH is obtained as described above, and the entropic contribution − TΔS is calculated from the numerical difference between ΔG and ΔH .
Cacodylate was excluded as a buffering agent due to its toxicity. […] 2.5 % (v/v) DMSO corresponds to a molar concentration of 0.35 M.
Each parameter alone can have a clear effect on the thermodynamic properties.[11] We used the MicroCal PEAQ‐ITC Automated ITC with a cell volume of 200 μL; 25 °C is a standard temperature, where most of the experiments are carried out, not only ITC. We followed standard protocols for protein, ligand, and buffer concentrations.[16]
The dialysis was performed in a 600 mL beaker. The membrane of the cassette was soaked in the dialysis buffer for 2 min by holding it (with gloves) in the beaker filled with dialysis buffer at pH 7.0 (TRIS, ADA, HEPES and phosphate, respectively). After pre‐soaking, the cassette was carefully dried with a paper towel to prevent buffer from entering the cassette, but without touching the membranes. 3 mL of at least 4 mg mL^−1 protein solution was added to the cassette using a 200 μL micropipette. When the cassette was closed with the stopper, any remaining air was gently evacuated from the dialysis chamber. The protein was then dialyzed against 500 mL of dialysis buffer for 2 hours at RT with slow stirring. The buffer was then replaced with 500 mL of fresh buffer and stirred again for 2 hours at RT. After another change of buffer, the dialysate was stored in the refrigerator overnight (12–20 hours). The next day, the protein solution was removed using a syringe with a long cannula. The protein was stored on ice before being shock frozen in liquid nitrogen to determine the concentration using NanoDrop™ 2000c (Thermo Scientific, USA).
ITC measurements were performed using the MicroCal PEAQ‐ITC Automated ITC (Malvern Panalytical, Worcestershire, UK). […] For the reference titration, the same titrant was titrated into the buffer solution. The obtained thermogram peaks of all titrations were integrated and fitted with MicroCal PEAQ‐ITC Analysis Software 1.41.

Endothiapepsin (EP) [3] = conditions: ITC; 80 μM EP, 1200 μM pepA, 20 mM buffer (ACES, Cacodylate, HEPES, Phosphate, TRIS), 16 °C, pH 7.0; ref 12 (Gómez and Freire); cited from earlier work
Endothiapepsin (EP) [4] = conditions: in words; ref not given; cited from earlier work

HIV-1 protease (Human immunodeficiency virus 1)
pKa (Asp25): 3.1
pKa (Asp25; record 2): 5.2

HIV‐1 PR: HIV-1 protease, an aspartic protease, used to calibrate the Poisson-Boltzmann methodology
pKa of Asp25 [1]: 3.1
pKa of Asp25’ [1]: 5.2

Iva‐Val‐Val‐Sta‐Ala‐Sta [pepA]
proton uptake upon pepA binding to EP, in words (Endothiapepsin (EP) [2]): uptake of more than one mole of protons
total proton exchange ΔnH^+ (proton uptake per binding reaction) (Endothiapepsin (EP) [2]; ITC, slope of ΔHobs vs ΔHionization in phosphate, ADA, HEPES, TRIS, pH 7.0, 25 °C, 50 μM EP, 500 μM pepA, 100 mM buffer, 2.5 % DMSO, 0.1 % Tween20, on average): 1.67±0.12 protons per binding reaction
enthalpic contribution (ΔHobserved) in TRIS (Endothiapepsin (EP) [2]; TRIS buffer 100 mM, pH 7.0, 25 °C, 2.5 % DMSO, 0.1 % Tween20): 7.34 ± 0.693 kcal/mol
overall proton uptake (Endothiapepsin (EP) [2]; pH 7): 1.67±0.12 moles of protons
total proton exchange ΔnH^+ (proton uptake) (Endothiapepsin (EP) [2]; pH 7): 1.67 ± 0.12 mol
buffer-corrected enthalpy of the binding reaction ΔHcorrected (Endothiapepsin (EP) [2]; y-axis intercept of ΔHobs vs ΔHion in phosphate, ADA, HEPES, TRIS, pH 7.0, 25 °C): -12.7 kcal/mol
proton exchange ΔnH^+ previously published (Endothiapepsin (EP) [3]): 1.1±0.1 protons
pH dependence of affinity (Endothiapepsin (EP) [4]): becomes higher at more acidic pH
